Read-outs that look alike come from different tables or passages of the source.
Legend:
[1] = system: Plasmodium falciparum 3D7-A10 parasites; experiment: Stage specificity assay (8-h exposure of synchronized stages, IC50^8h); format: cell-based; settings: for IC50: Plasmodium falciparum
[2] = system: asynchronous 3D7-A10 parasite cultures; experiment: Standard 72-h exposure asexual blood stage susceptibility assay (IC50^72h); format: cell-based, Plasmodium falciparum; settings: Plasmodium falciparum, 3D7, 72 h, read-out: Overall (72hr assay) Mean IC50 (IC50^72h)
[3] = system: 3D7-MR4 trophozoite parasite-infected RBCs; experiment: Metabolomic profiling (hydrophilic metabolite changes, UHPLC-MS); format: cell-based, Plasmodium falciparum

Cl.c1ccc2c(NCCCCCCNc3c4c(nc5ccccc35)CCCC4)c3c(nc2c1)CCCC3 [MMV019555]
Ratio lowest IC50 8hr/IC50 72hr ([1]; 3D7-A10): 2.4 | IC50 ([1]; 3D7, read-out: Early rings Mean IC50 (IC50^8h)): 0.755 µM | IC50 ([1]; 3D7, read-out: Early trophozoites Mean IC50 (IC50^8h)): 0.0814 µM | IC50 ([1]; 3D7, read-out: Late rings Mean IC50 (IC50^8h)): 0.788 µM | IC50 ([1]; 3D7, read-out: Late trophozoites Mean IC50 (IC50^8h)): 0.11 µM | IC50 ([1]; 3D7, read-out: Schizonts Mean IC50 (IC50^8h)): 0.349 µM | Stage of peak activity (Figure 6) ([1]; period when the parasite was most susceptible (lowest IC50^8h)): trophozoites | Peak Activity (Table S1) ([1]; stage(s) with the lowest IC50^8h): Trophs | IC50 [2]: 0.0333 µM | peptide levels (hemoglobin catabolism signature) ([3]; 10 × IC50^72h, 2.5 hr, trophozoites): decreased peptide levels | Log2(fold changes) 3-phosphoglycerate ([3]; metabolite 3-phosphoglycerate, log2 fold change): -0.7704 | Log2(fold changes) 4-Pyridoxic acid ([3]; metabolite 4-Pyridoxic acid, log2 fold change): -0.0064 | Log2(fold changes) 4-aminobutyrate ([3]; metabolite 4-aminobutyrate, log2 fold change): -0.0746 | Log2(fold changes) 4-phosphopantetheine ([3]; metabolite 4-phosphopantetheine, log2 fold change): 0.0000 | Log2(fold changes) 4-phosphopantothenate ([3]; metabolite 4-phosphopantothenate, log2 fold change): -0.0563 | Log2(fold changes) 5-aminopentanoic acid ([3]; metabolite 5-aminopentanoic acid, log2 fold change): 0.0000 | Log2(fold changes) 5-methyl-THF ([3]; metabolite 5-methyl-THF, log2 fold change): 0.0000 | Log2(fold changes) 5-phosphoribosyl-1-pyrophosphate ([3]; metabolite 5-phosphoribosyl-1-pyrophosphate, log2 fold change): 0.0000 | Log2(fold changes) 6-phospho-D-gluconate ([3]; metabolite 6-phospho-D-gluconate, log2 fold change): -0.1925 | Log2(fold change) HVDD ([3]; metabolite HVDD): -3.3896 | Log2(fold change) Hydroxyisocaproic acid ([3]; metabolite Hydroxyisocaproic acid): 0.0000 | Log2(fold change) IDP ([3]; metabolite IDP): 0.0000 | Log2(fold change) IMP ([3]; metabolite IMP): 0.2158 | Log2(fold change) Inositol ([3]; metabolite Inositol): 0.0000 | Log2(fold change) Isopentyl-PP ([3]; metabolite Isopentyl-PP): 0.0000 | Log2(fold change) L-arginino-succinate ([3]; metabolite L-arginino-succinate): 2.1877 | Log2(fold change) LD ([3]; metabolite LD): -0.1309 | Log2(fold change) Myristoyl/tetradecanoyl-CoA ([3]; metabolite Myristoyl/tetradecanoyl-CoA): 0.0000 | Log2(fold change) N-Acetyl-L-alanine ([3]; metabolite N-Acetyl-L-alanine): -0.6973 | Log2(fold change) N-acetyl-L-ornithine ([3]; metabolite N-acetyl-L-ornithine): -2.1230 | Log2(fold change) N-acetyl-glucosamine-1/6-phosphate ([3]; metabolite N-acetyl-glucosamine-1/6-phosphate): -0.2838 | Log2(fold change) N-acetyl-glutamate ([3]; metabolite N-acetyl-glutamate): 0.3598 | Log2(fold change) N-acetyl-glutamine ([3]; metabolite N-acetyl-glutamine): -3.0977 | Log2(fold change) N-carbamoyl-L-aspartate ([3]; metabolite N-carbamoyl-L-aspartate): -1.7500 | Log2(fold change) NAD+ ([3]; metabolite NAD+): -0.0354 | Log2(fold change) NADH ([3]; metabolite NADH): 0.0000 | Log2(fold change) NADP+ ([3]; metabolite NADP+): 0.1571 | Log2(fold change) NADPH ([3]; metabolite NADPH): 0.0000 | Log2(fold change) O-acetyl-L-serine ([3]; metabolite O-acetyl-L-serine): 0.0000 | Log2(fold change) Octoluse 8/1P ([3]; metabolite Octoluse 8/1P): 0.0000 | Log2(fold change) Octoluse Bisphosphate ([3]; metabolite Octoluse Bisphosphate): 0.2948 | Log2(fold change) PD ([3]; metabolite PD): -3.7912 | Log2(fold change) PE ([3]; metabolite PE): -2.1499 | Log2(fold change) PEE ([3]; metabolite PEE): -2.7511 | Log2(fold change) PEEK ([3]; metabolite PEEK): -0.8070 | Log2(fold change) PVNF ([3]; metabolite PVNF): -5.1804 | Log2(fold change) Pyroglutamic acid ([3]; metabolite Pyroglutamic acid): 0.0000 | Log2(fold change) Pyrophosphate ([3]; metabolite Pyrophosphate): 0.0000 | Log2(fold change) Ribose-5-phosphate ([3]; metabolite Ribose-5-phosphate): 0.0000 | Log2(fold change) S-adenosyl-L-homocysteine ([3]; metabolite S-adenosyl-L-homocysteine): -0.6013 | Log2(fold change) S-adenosyl-L-methioninamine ([3]; metabolite S-adenosyl-L-methioninamine): 0.0000 | Log2(fold change) S-adenosyl-L-methionine ([3]; metabolite S-adenosyl-L-methionine): 0.0000 | Log2(fold change) S-methyl-5'-thioadenosine ([3]; metabolite S-methyl-5'-thioadenosine): 0.0000 | Log2(fold change) SD ([3]; metabolite SD): -1.1672 | Log2(fold change) SDL ([3]; metabolite SDL): -3.6117 | Log2(fold change) SID ([3]; metabolite SID): -6.9124 | Log2(fold change) Sedoheptulose bisphosphate ([3]; metabolite Sedoheptulose bisphosphate): 0.7315 | Log2(fold change) Thiamine pyrophosphate ([3]; metabolite Thiamine pyrophosphate): 0.0000 | Log2(fold changes) UDP-D-glucose ([3]; metabolite UDP-D-glucose, log2 fold change): 0.2602 | Log2(fold changes) UDP-D-glucuronate ([3]; metabolite UDP-D-glucuronate, log2 fold change): 0.1434 | Log2(fold changes) UDP-N-acetyl-glucosamine ([3]; metabolite UDP-N-acetyl-glucosamine, log2 fold change): 0.1146 | Log2(fold changes) UDP ([3]; metabolite UDP, log2 fold change): 0.8739 | Log2(fold changes) UMP ([3]; metabolite UMP, log2 fold change): -0.0547 | Log2(fold changes) UTP ([3]; metabolite UTP, log2 fold change): -0.1611 | Log2(fold change) hydroxyphenylpyruvate ([3]; metabolite hydroxyphenylpyruvate): 0.0000 | Log2(fold change) hydroxyproline/Aminolevulinate ([3]; metabolite hydroxyproline/Aminolevulinate): 0.0631 | Log2(fold change) hypoxanthine ([3]; metabolite hypoxanthine): 0.0000 | Log2(fold change) indole ([3]; metabolite indole): 0.0000 | Log2(fold change) inosine ([3]; metabolite inosine): -0.4951 | Log2(fold change) isoleucine ([3]; metabolite isoleucine): 0.1119 | Log2(fold change) lactate ([3]; metabolite lactate): 0.0000 | Log2(fold change) leucine ([3]; metabolite leucine): -0.0578 | Log2(fold change) lysine ([3]; metabolite lysine): 0.0000 | Log2(fold change) malate ([3]; metabolite malate): -0.8281 | Log2(fold change) maleic acid ([3]; metabolite maleic acid): -0.8184 | Log2(fold change) methionine ([3]; metabolite methionine): 0.4693 | Log2(fold change) myo-inositol ([3]; metabolite myo-inositol): 0.0000 | Log2(fold change) nicotinamide mononucleotide ([3]; metabolite nicotinamide mononucleotide): 0.0000 | Log2(fold change) nicotinate ([3]; metabolite nicotinate): -0.1129 | Log2(fold change) ornithine ([3]; metabolite ornithine): 0.0000 | Log2(fold change) orotate ([3]; metabolite orotate): -0.7791 | Log2(fold change) orotidine-5'-phosphate ([3]; metabolite orotidine-5'-phosphate): -1.4071 | Log2(fold change) oxaloacetate ([3]; metabolite oxaloacetate): 0.0000 | Log2(fold change) p-aminobenzoate ([3]; metabolite p-aminobenzoate): 0.0000 | Log2(fold change) p-hydroxybenzoate ([3]; metabolite p-hydroxybenzoate): 0.0000 | Log2(fold change) pantothenate ([3]; metabolite pantothenate): 0.0969 | Log2(fold change) phenylalanine ([3]; metabolite phenylalanine): -0.1076 | Log2(fold change) phenylpyruvate ([3]; metabolite phenylpyruvate): 0.0000 | Log2(fold change) phosphoenolpyruvate ([3]; metabolite phosphoenolpyruvate): -0.6196 | Log2(fold change) prephenate ([3]; metabolite prephenate): 0.0000 | Log2(fold change) proline ([3]; metabolite proline): -0.3102 | Log2(fold change) pyridoxine ([3]; metabolite pyridoxine): 0.0000 | Log2(fold change) pyruvate ([3]; metabolite pyruvate): -0.3424 | Log2(fold change) riboflavin ([3]; metabolite riboflavin): 0.1087 | Log2(fold change) ribose ([3]; metabolite ribose): 0.0000 | Log2(fold change) ribose-phosphate ([3]; metabolite ribose-phosphate): -0.8253 | Log2(fold change) ribulose-5-phosphate ([3]; metabolite ribulose-5-phosphate): -0.7229 | Log2(fold change) serine ([3]; metabolite serine): 0.0219 | Log2(fold change) sn-glycerol-3-phosphate ([3]; metabolite sn-glycerol-3-phosphate): -0.8632 | Log2(fold change) succinate/Methylmalonic acid ([3]; metabolite succinate/Methylmalonic acid): 0.2169 | Log2(fold change) succinyl-CoA/methylmalonyl-CoA ([3]; metabolite succinyl-CoA/methylmalonyl-CoA): 0.0000 | Log2(fold change) taurine ([3]; metabolite taurine): 0.0000 | Log2(fold change) thiamine ([3]; metabolite thiamine): -0.8248 | Log2(fold change) threonine/homoserine ([3]; metabolite threonine/homoserine): -0.3688 | Log2(fold change) thymidine ([3]; metabolite thymidine): 0.0000 | Log2(fold changes) thymine ([3]; metabolite thymine, log2 fold change): 0.0000 | Log2(fold changes) trehalose-6-Phosphate ([3]; metabolite trehalose-6-Phosphate, log2 fold change): 0.0000 | Log2(fold changes) tryptophan ([3]; metabolite tryptophan, log2 fold change): -0.0448 | Log2(fold changes) tyrosine ([3]; metabolite tyrosine, log2 fold change): 0.2358 | Log2(fold changes) uridine ([3]; metabolite uridine, log2 fold change): 0.0000
